The text below walks through data of patent EP1073891B1, “METHOD OF PREDICTING RECEPTOR MODULATING ACTIVITY” (Duke University, priority 1998, dated 1999).

Like-named read-outs stand apart in the source and are kept apart here.

Experiment [1] has as its target T1, ERβ (Homo sapiens, UniProt Q92731). The experiment can be described thus: Phage ELISA / fingerprint on ER immobilized on biotinylated ERE (Examples 2.3-2.5). The settings on record: probe α/β I (LXXLL motif). A general note: In an ELISA, binding on a coated surface is turned into a signal by an enzyme label.
Protocol: Immulon 4 96-well plates were coated with streptavidin in 0.1 sodium bicarbonate.
All of the phage were classified based on their ability to bind to ER a and ER β, in the presence or absence of SERMs. These assays were conducted by phage ELISA. In essence, plastic plates were coated with streptavidin (sigma). Biotinylated-EREs (see above) were conjugated to the solid-phase streptavidin, and ER to the ERE. Bound phage were detected using horseradish peroxidase-labeled anti-(M13 phage) antibodies.
The ER was then incubated with 100µl TBST or TBST containing 1 µM of the appropriate modulator. Phage (40µl), from a 5 hour culture grown in DH5αF' cells, was added directly to the wells and incubated 30 minutes at room temperature. Unbound phage were then removed by 5 washes with TBST. Bound phage were detected using an anti-M13 antibody coupled to horseradish peroxidase (HRP). Assays were developed with 2,2'-azinobis(3-ethylbenzothiazoline)-6 sulfonic acid (ABTS) and hydrogen peroxide for 10 minutes and then stopped by the addition of 1% SDS.
The binding activity is indicated on a semiquantitative scale of 0 to 7+.
The probes were used to fingerprint the interaction of ER α and ER β with a variety of different SERMs by the assay method previously described (using ERE). Next, we evaluated the binding of each of the probes to ERα and ERβ in the presence of a variety of ER ligands that have distinct biological activities. The goal was to determine if each of the ligands would induce a conformational change in the ER that would alter the binding pattern of the probes, thus producing a "fingerprint" for each compound. […] Buffer only (apo-receptor) and progesterone were included as controls.
Phage were amplified from plaques in DHSα F' for 5 hours. Bound phage were detected as described previously. Assays were developed with ABTS (2,2'-azinobis(3-ethylbenzthiazoline-sulfonic acid) for 10 minutes.
In experiment [2] the target is T1, ERβ. Kind of experiment: Time resolved fluorescence (TRF) binding of europium-streptavidin peptide conjugates in the presence of modulators. On the set-up: purchased PanVera Corporation, Madison, WI. Conditions: for EC50 / Equiv.: ERβ; for Equiv.: positive: % of maximum stimulation by the reference modulator, negative: % of reduction by ICI 182,780.
For experiment [3], the target named is T2, ERα (Homo sapiens, UniProt P03372).
T2 sequence (P03372 1-595): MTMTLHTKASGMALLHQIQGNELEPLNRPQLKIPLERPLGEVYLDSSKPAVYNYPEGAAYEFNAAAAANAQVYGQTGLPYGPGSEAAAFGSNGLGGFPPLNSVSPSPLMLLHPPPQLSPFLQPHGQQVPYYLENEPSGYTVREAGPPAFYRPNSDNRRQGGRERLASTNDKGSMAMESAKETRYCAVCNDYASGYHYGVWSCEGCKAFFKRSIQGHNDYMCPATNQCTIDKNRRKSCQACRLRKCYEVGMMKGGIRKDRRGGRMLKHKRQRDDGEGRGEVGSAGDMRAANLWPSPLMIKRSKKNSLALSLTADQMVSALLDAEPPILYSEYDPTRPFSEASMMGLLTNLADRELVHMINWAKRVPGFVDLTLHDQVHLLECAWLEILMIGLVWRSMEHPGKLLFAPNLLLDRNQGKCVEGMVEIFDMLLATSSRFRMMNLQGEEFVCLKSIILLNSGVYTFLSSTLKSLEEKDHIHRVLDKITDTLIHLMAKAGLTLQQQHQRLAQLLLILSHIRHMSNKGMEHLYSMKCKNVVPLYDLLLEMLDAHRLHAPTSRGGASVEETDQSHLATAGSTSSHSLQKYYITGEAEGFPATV
Kind of experiment: Phage ELISA on plastic-immobilized ER, with or without estradiol, agonists or SERMs (Examples 1.3a, 1.4). In kind it is binding. On the set-up: purchased PanVera Corporation, Madison, WI. From the text: ER alpha (Panvera Corp.) was immobilized on Immulon 4 plastic plates (Dynatech) for the phage affinity selection as described in patent application Fowlkes, 09/050,359. Peptide sequences obtained for binding to the unliganded (unactivated) receptor are listed below (Table 1).
Phage expressing distinct peptide sequences were classified according to a number of different parameters.
The effect of agonists and SERMs on the binding of phage from each of the 5 classes described above was investigated.
The following fingerprints were identified (Table 6). The data are based on the relative change in binding (as determined by an increase or decrease in absorbance) compared to the unliganded receptor. The number of + or - signs indicates the degree and the direction of the change in signal; +/- indicates no significant change.

Experiment [4] deals with T3, estrogen receptor α (ERα) (Homo sapiens, UniProt P03372).
T3 construct: The full length estrogen receptor was subcloned in frame into the EcoRI and XhoI sites of pJG4-5; expressed in transfected cells; host or cells: Saccharomyces cerevisiae EGY48
T3 sequence (P03372 1-595): T2 sequence (P03372 1-595)
Kind of experiment: LexA yeast two hybrid, β-galactosidase activity assay (Example 3). In kind it is cell-based. An excerpt:
The LexA system that we employ utilizes a bacterial DNA binding protein domain, LexA, and a bacterially derived transcriptional activation sequence, B42. Proteins or peptides of interest are fused in frame with these domains and expressed using episomal plasmids in a yeast cell. The interactions between these proteins/peptides of interest are registered by monitoring the level of the reporter gene product, β-galactosidase, by an enzymatic assay. The differences in the levels of β-galactosidase activities reflect the relative strengths of the protein interactions.
The yeast strains used in this study was EGY48 (MAT a trp1 his3 ura3 leu2::61exAops-LEU2) purchased from OriGeneTechnologies for yeast two hybrid analysis. This strain contains 6 LexA operators upstream of the LEU2 gene in the yeast genome and provides high sensitivity in detecting protein-protein interactions in the LexA two hybrid system. The plasmids used in this study were pEG202 (LexA-DNA binding domain), pJG4-5 (B42-activation domain), and the plasmid containing a β-galactosidase reporter, pJK103 (OriGene Technologies). The full length estrogen receptor was subcloned in frame into the EcoRI and XhoI sites of pJG4-5 to generate an ERα-B42 activation domain fusion. ERα was subcloned in the activation domain plasmid because ERα was able to autoactivate reporters when fused to the LexA DNA binding domain.
The peptide sequences used in this study were generated from synthetic oligos filled in by T7 Sequenase (Life Science) and subcloned into the EcoRI-XhoI sites of pEG202. The synthetic oligos were: [formula] [formula] [formula] [formula] The complementary synthetic oligo used to generate double stranded DNA was 3'XhoPrim, 5'-[…]. Each 5'-oligo was annealed to the 3'-oligo by heating to 90 °C for 15 minutes and cooled slowly to 35 °C. T7 sequenase was added and the fill-in reaction allowed to proceed at 30 °C for 30 minutes. The reaction was terminated by heat denaturing the enzyme at 65 °C for 1 hour, restriction digests were performed and the resulting DNA fragments subcloned into pEG202 to generate peptide-LexA DNA binding domain fusions.
The culture was diluted to ~2x10^6 cells/ml in the same media and allowed to grow at 30 °C until the cultures reached a density of ~1x10^7 cells/ml (∼4 hours). The yeast cells were pelleted by centurifugation, washed with extraction buffer (60 mM Na2HPO4, 40 mMNaH2PO4, 10 mM KCl, 1 mM MgSO4, 1mM PMSF, 7 mM 2-mercaptoethanol) and suspended in 200 µl of extraction buffer. 100 µl of acid-washed glass beads were added and cells were lysed by vigorous agitation for 10 minutes at 4 °C. Cellular debris was pelleted by centrifugation and the supernatant transferred to a clean tube. 10 µg of total cellular protein was diluted into complete Z buffer (60 mM Na2HPO4, 40 mMNaH2PO4 , 10 mM KCl, 1 mM MgSO4, 7 mM 2-mercaptoethanol) to a volume of 100 µl in a 96-well microplate. 80 µg of o-nitrophenyl-β-D-pyranoside (ONPG) in 20 µl was added to each well to initiate color development.
10µg of each protein extract was assayed for β-galactosidase activity using o-nitrophenyl-b-D-pyranoside as substrate. Activity units are defied as 1000* Abs405/minutes/mg/protein.
Values are in beta-galactosidase units (MOD/min/mg)

Another experiment deals with T4, full length ER-α (Homo sapiens, UniProt P03372).
T4 construct: Baculovirus expressed full length ER-α; host or cells: baculovirus expression
T4 sequence (P03372 1-595): T2 sequence (P03372 1-595)
Kind of experiment: Affinity selection and phage ELISA of X7-LXXLL-X7 library on estradiol treated ER (Example 101.1). The experiment is classed as binding. The method, then:
M13 phage-based random peptide libraries were incubated with target proteins in the wells, ER binding phage were retained while the unbound phage were washed away. Bound phage were eluted by low pH buffer, amplified in DH5αF' cells and subjected to subsequent round of selection. The selection processes were repeated 2-3 times to enrich for EB bonding phage. Individual phage were plaque purified, amplified and their binding characteristics were examined by ELISA.

A further experiment addresses T5, full length ER (Homo sapiens, UniProt P03372).
T5 construct: amino terminal domain (1-184) fused to GST, and the full length ER; purchased PanVera Corporation, Madison, WI
T5 sequence (P03372 1-595): T2 sequence (P03372 1-595)
Kind of experiment: Mapping of probe binding sites, phage ELISA on directly immobilized receptor. The method, then:
Assays were conducted using the format described in Example 2.3, except that the domains were directly immobilized on the plastic surface of the well. Assays were conducted as for phage ELISA (Ex. 2.3).

The subject of another experiment is ER. In kind it is cell-based.
The test system of the next experiment is MCF-7 cell xenografts. The experiment can be described thus: Growth of MCF-7 cell xenografts in A-thymic nude mice. In kind it is in vivo.
A short description of experiment [5]: In vivo tissue pharmacology of antiestrogen (uterus, bone, cardiovascular system). Conditions: assayed in vivo.
The target in experiment [6] is T2, ERα. In kind it is binding. On the set-up: purchased PanVera Corporation, Madison, WI. Conditions: Table 14, ERα and ERβ; progesterone 1 µM. The method, then: Oligonucleotides corresponding to the vitellogenin ERE, biotin-[…] (forward) and biotin-[…] (reverse), were synthesized by Genosys.
These assays were conducted by phage ELISA.
Res. Treat. […] Jordan, Pharmacological Rev. […] And Metab.
Bound phage were detected as described previously.

The mark [7] stands for this setting: TRF binding assay, in the presence of the compound.

T1 sequence (Q92731 whole entry): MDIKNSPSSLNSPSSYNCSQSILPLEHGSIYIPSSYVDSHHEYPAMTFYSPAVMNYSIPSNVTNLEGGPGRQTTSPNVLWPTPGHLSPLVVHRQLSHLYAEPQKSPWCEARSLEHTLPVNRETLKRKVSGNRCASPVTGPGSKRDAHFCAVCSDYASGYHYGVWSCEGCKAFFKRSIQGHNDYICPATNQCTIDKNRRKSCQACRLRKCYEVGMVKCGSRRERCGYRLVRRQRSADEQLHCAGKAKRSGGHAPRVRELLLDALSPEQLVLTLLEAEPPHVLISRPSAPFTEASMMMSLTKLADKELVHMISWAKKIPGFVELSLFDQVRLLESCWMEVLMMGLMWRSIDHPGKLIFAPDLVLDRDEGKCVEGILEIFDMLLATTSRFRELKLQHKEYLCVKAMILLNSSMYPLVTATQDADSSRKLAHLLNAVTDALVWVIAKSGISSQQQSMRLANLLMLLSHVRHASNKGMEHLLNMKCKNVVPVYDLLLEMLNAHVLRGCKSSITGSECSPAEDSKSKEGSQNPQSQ

What is called EC50 is the midpoint of the concentration-response curve. In the case of `CCN(CC)CCOc1ccc(C(=C(Cl)c2ccccc2)c2ccccc2)cc1` [Clomiphene, clomiphene], the “binding of the probe α/β I to ER β in the presence of the ligand” value (“binding of the probe α/β I to ER β” for short) on ERβ [1] is recorded as “prevented the binding”. Also, at ERβ [2] (setting [7]), the “binding of the β I probe to ER β” value is “reduced”. Moreover, the EC50 at ERβ [2] (peptide probe α/βIII) came to 82.2 nM; at ERβ [2] (peptide probe α/βV), 150 nM; at ERβ [2] (peptide probe βI) it was 135 nM; at ERβ [2] (peptide probe βIII), 123 nM. Besides, the Equiv. on ERβ [2] (peptide probe α/βIII) is 34%; on ERβ [2] (peptide probe α/βIV), 0%; on ERβ [2] (peptide probe α/βV), 13%; on ERβ [2] (peptide probe βI) it was -62%; at ERβ [2] (peptide probe βIII), -61%.

For the compound SSYQWETHSDKWRSR, in the experiment with ERα [3], the “binding of ER in presence of estradiol” value is recorded as “weak binders”.

Turning to `O=C(c1ccc(OCCN2CCCCC2)cc1)c1c(-c2ccc(O)cc2)sc2cc(O)ccc12` [raloxifene], at ERβ [1], the “binding of the probe α/β I to ER β” value is “prevented the binding”. Moreover, on ERβ [2], the “binding of the β I probe to ER β” value is reported as “reduced”.

Take `CC/C(=C(\c1ccc(O)cc1)c1ccc(/C=C/C(=O)O)cc1)c1ccccc1` [GW 7604]: the Equiv. at ERβ [2] (peptide probe α/βI) and on ERβ [2] (peptide probe α/βV) was 0% throughout.

Take GHEPLTLLERLLMDDKQAV [Peptide F6]: the “Peptide Interactions with ER Alpha, beta-galactosidase units, value” turned out to be 20267 MOD/min/mg in [4] (4-hydroxy Tamoxifen), 38883 MOD/min/mg in experiment [4] (Estradiol), 30983 MOD/min/mg in [4] (No Addition) and 11947 MOD/min/mg in experiment [4] (Tamoxifen Citrate). For the same compound, the “affinity for ERα” value with full length ER-α (affinity-selected peptide) is reported as “high affinity”.

With SSEYCFYWDSAHCSR [α I], the “binding to the full length protein” value with full length ER is “binds only to the full length protein”.

Turning to `CC/C(=C(\c1ccccc1)c1ccc(/C=C/C(=O)O)cc1)c1ccccc1` [GW5638], the “AF-1 and AF-2 agonist activity” value in the experiment with ER was “devoid of AF-1 and AF-2 agonist activity”. The “inhibition of tamoxifen partial agonist activity” value with ER (assayed in vitro) is “inhibits tamoxifen partial agonist activity under all conditions examined”. The “growth of MCF-7 cell xenografts” value with MCF-7 cell xenografts was “effectively inhibited”. For the same compound, in [5], the “activity in bone and the cardiovascular system” value is given as “functions as an estrogen”; the uterotrophic activity entry is “does not display uterotrophic activity”.

As to SSVTKKALTIAKDSR, in the experiment with ERα [3], the “binding of ER in presence of estradiol” value is listed as “weak binders”.

For SSNHQSRLIELLSR [ER4], the “binding to ligand occupied ER” value in the experiment with full length ER-α (agonist, partial agonist or antagonist occupied ER) is given as “binds to agonist occupied ER but not partial agonist- or antagonist-occupied ER”.

On to `CC(=O)[C@H]1CC[C@H]2[C@@H]3CCC4=CC(=O)CC[C@]4(C)[C@H]3CC[C@]12C` [progesterone], for which, on ERα [6], the “binding pattern of the probes (fingerprint) compared with buffer” value is given as “indistinguishable from that produced by buffer”.

Turning to `CC/C(=C(/CC)c1ccc(O)cc1)c1ccc(O)cc1` [DES, diethylstilbestrol], the “binding of the β I probe to ER β” value on ERβ [2] (setting [7]) is given as “reduction”.

In the case of `CC/C(=C(\c1ccc(O)cc1)c1ccc(OCCN(C)C)cc1)c1ccccc1` [4-OH Tamoxifen, 4-OH tamoxifen], the “binding of the probe α/β I to ER β” value on ERβ [1] is given as “prevented the binding”. At ERβ [2], the “binding of the β I probe to ER β” value is on record as “enhanced”.

On to `C[C@]12CC[C@@H]3c4ccc(O)cc4C[C@@H](CCCCCCCCC[S+]([O-])CCCC(F)(F)C(F)(F)F)[C@H]3[C@@H]1CC[C@@H]2O` (stereo partly shown) [ICI 182,780], for which the “binding of the probe α/β I to ER β” value on ERβ [1] is “prevented the binding”.
